In patent US12678453B2, “Aerosolized formulations of HIV protease inhibitors for the treatment of airway reflux” (The Medical College of Wisconsin, Inc., priority 2020, dated 2026):
Entries after “also recorded” stand apart in the source; their conditions may differ.

Tests used:
porcine pepsin [1] = biological target: T1, porcine pepsin (Sus scrofa, UniProt P00791); assay: peptic activity assay (fluorescence polarization, casein-Alexa647 substrate); format: biochemical; conditions: for inhibition of pepsin activity: 200 nM casein-Alexa647, 0.01 U/μL pepsin, 5% DMSO, FIG. 3B; for IC50 for pepsin: bind to and inhibit pepsin, numbers only in FIG. 3
T1 construct: purchased Worthington (Lakewood, NJ)
T1 sequence (P00791 60-385): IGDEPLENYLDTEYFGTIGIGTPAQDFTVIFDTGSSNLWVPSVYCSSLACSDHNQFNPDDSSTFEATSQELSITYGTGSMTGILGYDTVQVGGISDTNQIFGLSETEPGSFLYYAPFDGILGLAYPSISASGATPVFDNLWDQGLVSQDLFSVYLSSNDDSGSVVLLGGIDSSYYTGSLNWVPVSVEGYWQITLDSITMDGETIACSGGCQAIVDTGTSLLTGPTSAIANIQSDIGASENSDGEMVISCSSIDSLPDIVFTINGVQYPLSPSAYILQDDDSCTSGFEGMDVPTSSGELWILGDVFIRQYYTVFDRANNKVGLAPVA
Source text: (§1) Fluorescent polarization assays were developed to test compound binding and inhibition of pepsin (FIG. 1). A competitive binding assay was developed using pepstatin, a known inhibitor of pepsin with subnanomolar affinity^91 (Roberts 2003). This binding assay measures the relative binding affinity but not the enzymatic inhibition of compounds. Thus, a separate peptic activity assay was developed, which uses fluorescently labelled alpha casein as substrate. Both assays are based on the principle of fluorescence polarization (FP), which holds that as the molecular size of a fluorescent species is altered through dissociation/breakdown or association/binding events, the degree of depolarization of plane polarized light changes accordingly, directly affecting the FP value.^92 (Lea 2011). In the assays used herein, millipolarization (mP) decreases as casein-Alexa647 is degraded by pepsin and increases with binding of pepsin to pepstatin-Alexa647.
Casein was labeled as described by Jolley (1996)^93 using a 2.5 ug/mg label to protein ratio. Specifically, 200 ul 10 mg/ml bovine alpha casein (C6780 Sigma Aldrich, St. Louis, MO) in 0.1M sodium bicarbonate was incubated with 5 ul 1 mg/ml Alexa Fluor 647 Carboxylic Acid, Succinimidyl Ester (in DMSO; A-20106 ThermoFisher Scientific, Waltham, MA) for 15 minutes at room temperature. The mixture was applied to a Sephadex G-25 column (90×5 mm) in a glass Pasteur pipette. Elution was performing using D-PBS pH7.4 (ThermoFisher Scientific) containing 0.1% sodium azide. The fast-moving band containing casein-bound fluorophore was collected in a volume of approximately 0.4 ml. Concentration of resultant probe (casein-Alexa647 in PBS-azide) was estimated via spectrophotometry using Beer's law (Implen Nanophotometer, Implen, Inc. Westlake Village, CA). Probe was aliquoted and stored at −20° C. until use.
(§2) Assays were performed in 20 ul volumes in 384-well black optical plates (Nunc, Roskilde, DK). Pepstatin dose response curves were used to optimize pepsin/inhibitor concentrations and assay incubation times. Dose response was performed using 0.3-1000 uM unlabeled pepstatin with 100-500 nM pepstatin-Alexa647 probe, 0.003-3U/μl porcine pepsin (Worthington, Lakewood, NJ), and 10-37% dimethyl sulfoxide (HIV protease inhibitor diluent) in 0.1M HCl, pH1+0.01% Tween-20. Reagents were combined (with pepsin added last) in 50% of the final reaction volume for mixing and immediately read on a BioTek Cytation (BioTek Instruments, Winooski, VT) with far-red FP filter cube at excitation/emission of […] for five minutes, in at least triplicate. Averaged polarization values of replicate reads were plotted against probe or labeled pepstatin concentrations in GraphPad Prism 8 (La Jolla, CA). Reagent concentrations yielding greatest dynamic range were selected for the assay. The peptic activity assay was optimized similarly using casein-Alexa647 probe in 0.1M HCl, pH1+0.01% Tween-20. Reagents were combined (adding pepsin last) and read immediately at minimal intervals (<2 minutes apart) over 30 minutes. The assay was performed in triplicate and mean polarization value was plotted over time.
HIV protease inhibitors were dissolved in DMSO. […] Compounds were tested under optimized assay conditions over a range of three logs concentration in triplicate and plotted using GraphPad Prism 8. Half-maximal inhibitory concentration (IC50) were calculated from kinetic traces analyzed using an online tool (icekat.herokuapp.com/icekat, O1p 2019^95). Percent bound and percent activity were calculated by normalization to the measured polarization value without HIV protease inhibitor compound.
Our team developed and optimized two high-throughput screening (HTS) assays to identify compounds that are specific and sensitive inhibitors of pepsin (FIG. 1). The first assay is a binding assay that measures the ability of a compound to compete with fluorescently labeled pepstatin for its binding site on pepsin.

porcine pepsin [2] = biological target: T1, porcine pepsin; assay: competitive binding assay (fluorescence polarization, pepstatin-Alexa647 probe); conditions: 100 nM pepstatin-Alexa647, 0.03U/ul pepsin, 37.5% DMSO; FIG. 3A
Source text: as §1, §2
HIV protease inhibitors were dissolved in DMSO. Amprenavir, ritonavir, lopinavir, saquinavir mesylate, nelfinavir mesylate hydrate, darunavir ethanolate, indinavir sulfate salt hydrate were obtained from Sigma-Aldrich. […] Half-maximal inhibitory concentration (IC50) were calculated from kinetic traces analyzed using an online tool (icekat.herokuapp.com/icekat, O1p 2019^95). Percent bound and percent activity were calculated by normalization to the measured polarization value without HIV protease inhibitor compound. […]

| SMILES | inhibition of pepsin activity (porcine pepsin [1]) | IC50 for pepsin (porcine pepsin [1]) | competitive binding to pepsin (porcine pepsin [2]) |
| --- | --- | --- | --- |
| CC(C)CN(C[C@@H](O)[C@H](Cc1ccccc1)NC(=O)O[C@H]1CO[C@H]2OCC[C@H]21)S(=O)(=O)c1ccc(N)cc1 [darunavir, [(3a S,4R,6aR)-2,3,3a,4,5,6a-hexahydrofuro[2,3-b]furan-4-yl] N-[(2S,3R)-4-[(4-aminophenyl)sulfonyl-(2-methylpropyl)amino]-3-hydroxy-1-phenylbutan-2-yl]carbamate] | inhibition of pepsin activity | low micromolar range; also recorded: lowest IC50 | competitive binding to pepsin |
| CC(C)c1nc(CN(C)C(=O)N[C@H](C(=O)N[C@@H](Cc2ccccc2)C[C@H](O)[C@H](Cc2ccccc2)NC(=O)OCc2cncs2)C(C)C)cs1 [ritonavir, 1,3-thiazol-5-ylmethyl N-[(2S,3 S,5S)-3-hydroxy-5-[[(2S)-3-methyl-2-[[methyl-[(2-propan-2-yl-1,3-thiazol-4-yl)methyl]carbamoyl]amino]butanoyl]amino]-1,6-diphenylhexan-2-yl]carbamate] | inhibition of pepsin activity |  | competitive binding to pepsin |
| CC(C)CN(C[C@@H](O)[C@H](Cc1ccccc1)NC(=O)O[C@H]1CCOC1)S(=O)(=O)c1ccc(N)cc1 [amprenavir, [(3S)-oxolan-3-yl] N-[(2S,3R)-4-[(4-aminophenyl)sulfonyl-(2-methylpropyl)amino]-3-hydroxy-1-phenylbutan-2-yl]carbamate] | inhibition of pepsin activity | low micromolar range | competitive binding to pepsin |
| CC(C)(C)NC(=O)[C@@H]1C[C@@H]2CCCC[C@@H]2CN1C[C@@H](O)[C@H](Cc1ccccc1)NC(=O)[C@H](CC(N)=O)NC(=O)c1ccc2ccccc2n1 [saquinavir, (2S)—N-[(2S,3R)-4-[(3 S,4aS,8aS)-3-(tert-butylcarbamoyl)-3,4,4a,5,6,7,8,8a-octahydro-1H-isoquinolin-2-yl]-3-hydroxy-1-phenylbutan-2-yl]-2-(quinoline-2-carbonylamino)butanediamide] | inhibition of pepsin activity | low micromolar range | competitive binding to pepsin |
